In patent US20250064841A1, “Aqueous Composition Comprising Avermectins” (HWI Pharma Services GmbH, priority 2022, published 2025):

Experiments:
[1] = Particle size distribution (PSD) by laser diffraction, Malvern Mastersizer 2000/3000; assay type: physicochemical
Protocol: The mean particle size distribution is preferably obtained by laser diffraction. In a laser diffraction measurement, a laser beam passes through a dispersed particulate sample and the angular variation in intensity of the scattered light is measured. Large particles scatter light at small angles relative to the laser beam and small particles scatter light at large angles. The angular scattering intensity data is then analyzed to calculate the size of the particles that created the scattering pattern using the Mie theory of light scattering. The particle size is reported as a volume equivalent sphere diameter. The folded optical design in the Mastersizer 3000 (from Malvern Panalytical), which was in particular used for the measurements, provides a particle size range from 10 nm up to 3.5 mm using a single optical measurement path. The Mastersizer 3000 uses a sequential combination of measurements with red and blue light sources to measure across the entire particle size range.
The pharmaceutically active agent is grinded in a mortar/pestle system to the appropriate particles size prior to its use. Afterwards the Particles Size Distribution (PSD) is measured using a Malvern Master Sizer 3000. The samples after grinding are stored in tightly closed brown glass bottles.
The pharmaceutically active agent is micronised to the desired particles size using a jet mill (e.g. from SpiraNo 100 from MCKO, Germany) and screw dosing system (e.g. ZD 9 from Three-Tec Ltd., Seon, Switzerland). The diameter of the injection nozzle is selected at about 6 mm, the milling gas pressure about 2 bar, the milling temperature is about 18° C. The duration of the process is about 5-10 minutes depending on the particle size of the non-micronised active agent. Afterwards the PSD is measured with a Malvern Master Sizer 3000. The samples after micronisation are stored in tightly closed brown glass bottles.
Afterwards the PSD is measured with a Malvern Master Sizer 3000. In addition, the Zetapotential, an index for the stability of the multiparticulate suspensions is measured using a Zeta Sizer (e.g. Nano ZS) from Malvern Instruments (Dynamic Laser diffraction).
In some embodiments, the PSD of the pharmaceutically active agent, provided for the preparation of its multiparticulate suspension according to procedure 1 and procedure 2 (grinded/micronised), was measured using a Malvern Mastersizer 2000 or 3000 (in water as dispersion medium, stirrer speed 1500 rpm, Mie presentation) to give the following results:
In some embodiments, the PSD of the pharmaceutically active agent in multiparticulate suspension prepared according to procedure 3 (wet ball milling with Delta Vita 1), procedure 4 (wet ball milling Getzmann/Frewitt), procedure 5 (bulk microsuspension) and procedure 6 (final product) was measured using a Malvern Mastersizer 2000 or 3000 (in water as dispersion medium, stirrer speed 1500 rpm, Mie presentation).

SARS-Covid 2 virus = conditions: cited Monash lab experiments; cited from earlier work
rats = experiment: Histopathological examination of nostrils, nasal cavity and pharynx (local tolerability); assay type: in vivo; conditions: dose as high as 12.5 mg/kg in rats, intranasal
From the text: Subsequent to the last blood sampling animals were sacrificed by induction of a deep anesthesia with isoflurane followed by rapid exsanguinations. Then both nostrils and nasal cavity including pharynx were collected from all animals and preserved in neutral buffered formaldehyde (4%) for histopathological examination. Afterwards, tissues for the histopathological investigation were trimmed and embedded in paraplast®. The slides were HE (hematoxylin and eosin)-stained and histopathologically examined.

## ivermectin [05KB21.HM00170-]
[1]; API batch after micronisation
  D10: 0.97 μm
  D50: 2.22 μm
  D90: 4.35 μm

## ivermectin [05KB21.HM00155]
[1]; API batch after grinding
  D10: 2.02 μm
  D50: 6.89 μm
  D90: 32.0 μm

## ivermectin
SARS-Covid 2 virus
  activity against SARS-Covid 2 virus: active
rats
  tolerability of the active ingredient: well tolerated
